Measured values as given in patent publication US20100249132A1, “IMIDAZOLE DERIVATIVES” (MERCK PATENT GESELLSCHAFT MIT BESCHRANKTER HAFTUNG, priority 2007, published 2010).
pIC50: −log10 of the molar value.

target: T1, recombinant autotaxin (Homo sapiens, UniProt Q13822); assay: Autotaxin test (enzyme test), Amplex Red fluorescence; assay type: biochemical; settings: substrate LPC 75 μM, Amplex Red detection, read-out: IC50 (autotaxin inhibition, enzyme test)
T1 construct: made in house; host or cells: Hi5 insect cells (baculovirus)
Procedure: Autotaxin Inhibition (Enzyme Test)
Autotaxin Test (Enzyme Test)
The autotaxin activity is measured indirectly using Amplex Red reagent. Amplex Red is measured here as fluorogenic indicator for the H2O2 formed. In detail, autotaxin converts the substrate lysophosphatidylcholine (LPC) into phosphocholine and lysophosphatidylic acid (LPA). After this reaction, the phosphocholine is reacted with alkaline phosphatase to give inorganic phosphate and choline. In the next step, choline is oxidised by choline oxidase to give betaine, with formation of H2O2. H2O2 reacts with Amplex Red reagent in the presence of peroxidase (horseradish peroxidase) in a 1:1 stoichiometry and forms the highly fluorescent resorufin. The fluorescence is measured in a reaction-dependent kinetic mode in order that fluorescent signals from possible other fluorescent substances which are not involved in the reaction can be corrected out.
1.5 μl of a standard solution or of the test substances (substances with the name A(n)) in individual concentrations dissolved in 20 mM Hepes pH 7.2 with a maximum of 7.7% of DMSO are pre-incubated together with 10 μl (16 ng) of highly purified recombinant autotaxin in a black microtitre plate provided with 384 wells at 22° C. for 30 min. The reaction is then initiated by addition of 5 μl of L-α-lysophosphatidylcholine (LPC), where the final concentration of LPC is 75 μM. The mixture is incubated at 37° C. for 90 min. After the incubation, Amplex Red reagent, peroxidase (horseradish peroxidase) and choline oxidase is added, and the fluorescence is immediately measured at 612 nm with excitation of 485 nm in a “Tecan Ultra multimode” reader. The activity of autotaxin is calculated indirectly via detection of the H2O2 formed. • Material: • Microtitre plate: PS microplate, 384 wells, small volume, black Corning, Cat #3677 • Protein: recombinant autotaxin (Baculovirale Hi5 Expression) • Substrate: L-α-lysophosphatidylcholine (chicken egg)); Avanti Polar Lipids #830071 P • Standard: C14 LPA, Avanti Polar Lipids, Cat #857120P • Detection reagent: Amplex Red reagent; Invitrogen #A12222; dissolved in 1.923 ml of DMSO peroxidase type VI-A (horseradish) from Sigma #P6782; dissolved in 7.45 ml of test buffer, choline oxidase; Sigma #C5896; dissolved in 2.47 ml of test buffer • Detection reagent mix: 1:100 dilution of Amplex Red reagent in test buffer • Test buffer: 200 mM Tris HCl, Merck, Cat #1.08219, pH 7.9, 0.1% of BSA, lipid-free, Roche Cat #775835

Row | Compound | pIC50
1 | NC(=O)c1nc(Cc2ccc(C(=O)NCCc3c[nH]cn3)cc2)[nH]c1NC(=O)Nc1ccc(C(F)(F)F)cc1 [Compound A103, 2-{4-[2-(1H-Imidazol-4-yl)ethylcarbamoyl]benzyl}-5-[3-(4-trifluoromethylphenyl)ureido]-1H-imidazole-4-carboxamide] | < 5.00
2 | Cc1oc(-c2ccccc2)cc1NC(=O)Nc1[nH]c(Cc2ccc(C(=O)O)cc2)nc1C(N)=O [Compound A101, 4-{4-Carbamoyl-5-[3-(2-methyl-5-phenylfuran-3-yl)ureido]-1H-imidazol-2-ylmethyl}benzoic acid] | < 5.00
3 | CCc1ccc(NC(=O)Nc2[nH]c(Cc3ccc(OCC(=O)O)cc3)nc2C(N)=O)cc1 [Compound A42, (4-{4-Carbamoyl-5-[3-(4-ethylphenyl)ureido]-1H imidazol-2-ylmethyl}phenoxy)acetic acid] | 5.00 to 6.00
4 | NC(=O)c1nc(-c2ccc(OCC(=O)O)cc2)[nH]c1NC(=O)Nc1cccc(C(F)(F)F)c1 [Compound A49, (4-{4-Carbamoyl-5-[3-(3-trifluoromethylphenyl)-ureido]-1H-imidazol-2-yl}phenoxy)acetic acid] | 5.00 to 6.00
5 | CCCCc1ccc(NC(=O)Nc2[nH]c(Cc3ccc(C(=O)N4CCCCC4)o3)nc2C(N)=O)cc1 [Compound A88, 5-[3-(4-Butylphenyl)ureido]-2-[5-(piperidine-1-carbonyl)furan-2-ylmethyl]-1H-imidazole-4-carboxamide] | < 5.00
6 | CC(C)c1ccc(NC(=O)Nc2[nH]c(Cc3ccc(C(=O)O)o3)nc2C(N)=O)cc1 [Compound A12, 5-{4-Carbamoyl-5-[3-(4-isopropylphenyl)ureido]-1H-imidazol-2-ylmethyl}furan-2-carboxylic acid] | 5.00 to 6.00
7 | 5-[3-(4-Butylphenyl)ureido]-2-(5-cyclopropyl-carbamoylfuran-2-ylmethyl)-1H-imidazole-4-carboxamide [Compound A89] | < 5.00
8 | Cc1ccc(NC(=O)Nc2[nH]c(-c3ccc(CC(=O)O)cc3)nc2C(N)=O)c(C)c1 [Compound A24, (4-{4-Carbamoyl-5-[3-(2,4-dimethylphenyl)-ureido]-1H-imidazol-2-yl}phenyl)acetic acid] | < 5.00
9 | CCCCc1ccc(NC(=O)Nc2[nH]c(Cc3ccc(C(=O)N4CCOCC4)cc3)nc2C(N)=O)cc1 [Compound A94, 5-[3-(4-Butylphenyl)ureido]-2-[4-(morpholine-4-carbonyl)benzyl]-1H-imidazole-4-carboxamide] | 5.00 to 6.00
10 | NC(=O)c1nc(-c2ccc(CC(=O)O)cc2)[nH]c1NC(=O)Nc1cccc(Cl)c1 [Compound A21, (4-{4-Carbamoyl-5-[3-(3-chlorophenyl)ureido]-1H-imidazol-2-yl}phenyl)acetic acid] | < 5.00
11 | CCc1ccc(NC(=O)Nc2[nH]c(-c3ccc(C(=O)O)cc3)nc2C(N)=O)cc1 [Compound A19, 4-{4-Carbamoyl-5-[3-(4-ethylphenyl)ureido]-1H-imidazol-2-yl}benzoic acid] | < 5.00
12 | Cc1cc(Cl)ccc1NC(=O)Nc1[nH]c(COc2ccc(CC(=O)O)cc2)nc1C(N)=O [Compound A62, (4-{4-Carbamoyl-5-[3-(4-chloro-2-methylphenyl)-ureido]-1H-imidazol-2-ylmethoxy}phenyl)acetic acid] | 5.00 to 6.00
13 | CCCCc1ccc(NC(=O)Nc2[nH]c(Cc3ccc(C(=O)N4CCC(CCO)CC4)o3)nc2C(N)=O)cc1 [Compound A91, 5-[3-(4-Butylphenyl)ureido]-2-{5-[4-(2-hydroxy-ethyl)piperidine-1-carbonyl]furan-2-ylmethyl}-1H-imidazole-4-carboxamide] | 5.00 to 6.00
14 | CCc1ccc(NC(=O)Nc2[nH]c(Cc3ccc(C(=O)O)cc3)nc2C(N)=O)cc1 [Compound A7, 4-{4-Carbamoyl-5-[3-(4-ethylphenyl)ureido]-1H imidazol-2-ylmethyl}benzoic acid] | 5.00 to 6.00
15 | CC(C)c1ccc(NC(=O)Nc2[nH]c(Cc3ccc(OCC(=O)O)cc3)nc2C(N)=O)cc1 [Compound A1, (4-{4-carbamoyl-5-[3-(4-isopropylphenyl)ureido]-1H-imidazol-2-ylmethyl}phenoxy)acetic acid] | 5.00 to 6.00
16 | Cc1c(Cl)cccc1NC(=O)Nc1[nH]c(Cc2ccc(C(=O)O)cc2)nc1C(N)=O [Compound A8, 4-{4-Carbamoyl-5-[3-(3-chloro-2-methylphenyl)-ureido]-1H-imidazol-2-ylmethyl}benzoic acid] | 5.00 to 6.00

Row | Compound | pIC50
17 | NC(=O)c1nc(Cc2ccc(C(=O)O)o2)[nH]c1NC(=O)NCCc1ccccc1 [Compound A27, 5-[4-Carbamoyl-5-(3-phenethylureido)-1H-imidazol-2-ylmethyl]furan-2-carboxylic acid] | 5.00 to 6.00
18 | NC(=O)c1nc(Cc2ccc([N+](=O)[O-])cc2)[nH]c1NC(=O)Nc1ccc(C(F)(F)F)cc1 [Compound A96, 2-(4-Nitrobenzyl)-5-[3-(4-trifluoromethylphenyl)-ureido]-1H-imidazole-4-carboxamide] | < 5.00
19 | CCCCc1ccc(NC(=O)Nc2[nH]c(Cc3ccc(C(=O)N(C)CCC)o3)nc2C(N)=O)cc1 [Compound A90, 5-[3-(4-Butylphenyl)ureido]-2-[5-(methylpropyl-carbamoyl)furan-2-ylmethyl]-1H-imidazole-4-carboxamide] | < 5.00
20 | Cc1ccccc1NC(=O)Nc1[nH]c(Cc2ccc(C(=O)O)s2)nc1C(N)=O [Compound A67, 5-[4-Carbamoyl-5-(3-o-tolylureido)-1H-imidazol 2-ylmethyl]thiophene-2-carboxylic acid] | < 5.00
21 | NC(=O)c1nc(Cc2ccc(OCC(=O)O)cc2)[nH]c1NC(=O)Nc1ccc(F)cc1 [Compound A36, (4-{4-Carbamoyl-5-[3-(4-fluorophenyl)ureido]-1H-imidazol-2-ylmethyl}phenoxy)acetic acid] | < 5.00
22 | COc1cc(NC(=O)Nc2[nH]c(COc3ccc(CC(=O)O)cc3)nc2C(N)=O)cc(OC)c1 [Compound A63, (4-{4-Carbamoyl-5-[3-(3,5-dimethoxyphenyl)-ureido]-1H-imidazol-2-ylmethoxy}phenyl)acetic acid] | < 5.00
23 | COC(=O)c1ccc(Cc2nc(C(N)=O)c(NC(=O)Nc3ccc(OC(F)(F)F)cc3)[nH]2)cc1 [Compound A99, Methyl 4-{4-carbamoyl-5-[3-(4-trifluoromethoxy-phenyl)ureido]-1H-imidazol-2-ylmethyl}benzoate] | < 5.00
24 | Cc1ccc(NC(=O)Nc2[nH]c(Cc3ccc(C(=O)O)o3)nc2C(N)=O)c(C)c1 [Compound A14, 5-{4-Carbamoyl-5-[3-(2,4-dimethylphenyl)-ureido]-1H-imidazol-2-ylmethyl}furan-2-carboxylic acid] | < 5.00
25 | Cc1ccc(NC(=O)Nc2[nH]c(COc3ccc(CC(=O)O)cc3)nc2C(N)=O)c(C)c1 [Compound A60, (4-{4-Carbamoyl-5-[3-(2,4-dimethylphenyl)-ureido]-1H-imidazol-2-ylmethoxy}phenyl)acetic acid] | 5.00 to 6.00
26 | NC(=O)c1nc(-c2ccc(CC(=O)O)cc2)[nH]c1NC(=O)Nc1ccc(C(F)(F)F)cc1 [Compound A20, (4-{4-Carbamoyl-5-[3-(4-trifluoromethylphenyl)-ureido]-1H-imidazol-2-yl}phenyl)acetic acid] | < 5.00
27 | Cc1ccc(NC(=O)Nc2[nH]c(Cc3ccc(C(=O)O)s3)nc2C(N)=O)cc1 [Compound A69, 5-[4-Carbamoyl-5-(3-p-tolylureido)-1H-imidazol 2-ylmethyl]thiophene-2-carboxylic acid] | < 5.00
28 | Cc1cccc(C)c1NC(=O)Nc1[nH]c(Cc2ccc(C(=O)O)o2)nc1C(N)=O [Compound A26, 5-{4-Carbamoyl-5-[3-(2,6-dimethylphenyl)-ureido]-1H-imidazol-2-ylmethyl}furan-2-carboxylic acid] | < 5.00
29 | CCCCc1ccc(NC(=O)Nc2[nH]c(Cc3ccc(C(=O)N(C)c4ccccc4)o3)nc2C(N)=O)cc1 [Compound A84, 5-[3-(4-Butylphenyl)ureido]-2-[5-(methylphenyl-carbamoyl)furan-2-ylmethyl]-1H-imidazole-4-carboxamide] | 5.00 to 6.00
30 | NC(=O)c1nc(Cc2ccc(C(=O)O)o2)[nH]c1NC(=O)Nc1ccc(Cl)c(C(F)(F)F)c1 [Compound A29, 5-{4-Carbamoyl-5-[3-(4-chloro-3-trifluoromethyl-phenyl)ureido]-1H-imidazol-2-ylmethyl}furan-2-carboxylic acid] | < 5.00
31 | Cc1ccc(NC(=O)Nc2[nH]c(Cc3ccc(C(=O)O)cc3)nc2C(N)=O)cc1 [Compound A5, 4-[4-Carbamoyl-5-(3-p-tolylureido)-1H-imidazol 2-ylmethyl]benzoic acid] | < 5.00
